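Growth conditions: 96-well plates. Treatment: test compound, 48 hours, 5 concentrations. Analysis: linear interpolation between bracketing concentrations; unreached endpoints set to highest concentration. GI50 is the concentration that inhibits growth by half. TGI denotes the concentration required for complete inhibition of growth.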
Key:
Experiment in all cases: growth of human tumour cells (NCI), 48 h; in the data active means GI50 below about 0.43 µM; inactive means the rest
[1] = test system: ACHN renal
[2] = test system: MOLT-4 leukemia
[3] = test system: IGROV1 ovarian
[4] = test system: SK-MEL-2 melanoma
[5] = test system: KM12 colon
[6] = test system: SF-295 CNS
[7] = test system: NCI-H460 lung
[8] = test system: MDA-MB-435
[9] = test system: TK-10 renal
[10] = test system: SW-620 colon
[11] = test system: SF-268 CNS
[12] = test system: K-562 leukemia
[13] = test system: NCI-H522 lung
[14] = test system: HL-60(TB) leukemia
[15] = test system: CAKI-1 renal
[16] = test system: PC-3 prostate
[17] = test system: BT-549 breast
[18] = test system: OVCAR-8 ovarian
[19] = test system: NCI-H23 lung
[20] = test system: LOX IMVI melanoma
[21] = test system: SK-OV-3 ovarian
[22] = test system: HS 578T breast
[23] = test system: SK-MEL-5 melanoma
[24] = test system: SNB-75 CNS
[25] = test system: HCC-2998 colon
[26] = test system: SR leukemia
[27] = test system: HOP-62 NSCLC
[28] = test system: MDA-MB-231 breast
[29] = test system: NCI-H226 lung
[30] = test system: RXF 393 renal
[31] = test system: CCRF-CEM leukemia
[32] = test system: DU-145 prostate
[33] = test system: HOP-92 NSCLC
[34] = test system: RPMI-8226 leukemia
[35] = test system: HCT-15 colon
[36] = test system: COLO 205 colon
[37] = test system: A549 NSCLC
[38] = test system: T-47D breast
[39] = test system: A498 renal
[40] = test system: UO-31 renal
[41] = test system: SNB-19 CNS
[42] = test system: HT29 colon
[43] = test system: OVCAR-5 ovarian
[44] = test system: HCT-116 colon
[45] = test system: M14 melanoma
[46] = test system: SK-MEL-28 melanoma
[47] = test system: UACC-62 melanoma
[48] = test system: 786-0 renal
[49] = test system: EKVX NSCLC
[50] = test system: U251 CNS
[51] = test system: OVCAR-3 ovarian
[52] = test system: OVCAR-4 ovarian
[53] = test system: UACC-257 melanoma
[54] = test system: NCI/ADR-RES ovarian
[55] = test system: MALME-3M melanoma
[56] = test system: SN12C renal
[57] = test system: MCF7 breast
[58] = test system: SF-539 CNS

COc1ccc2c(c1)CC1Cc3cc(OC)c(OC)cc3CN1CC2 (centres undefined)
60.3 µM: TGI [26]
67.2 µM: TGI [33]
89 µM: TGI [31]
34.3 µM: TGI [14]
> 100 µM: TGI [1] | TGI [2] | TGI [3] | TGI [4] | TGI [5] | TGI [6] | TGI [7] | TGI [8] | TGI [9] | TGI [10] | TGI [11] | TGI [12] | TGI [13] | TGI [15] | TGI [16] | TGI [17] | TGI [18] | TGI [19] | TGI [20] | TGI [21] | TGI [22] | TGI [23] | TGI [24] | TGI [25] | TGI [27] | TGI [28] | TGI [29] | TGI [30] | TGI [32] | TGI [34] | TGI [35] | TGI [36] | TGI [37] | TGI [38] | TGI [39] | TGI [40] | TGI [41] | TGI [42] | TGI [43] | TGI [44] | TGI [45] | TGI [46] | TGI [47] | TGI [48] | TGI [49] | TGI [50] | TGI [51] | TGI [52] | TGI [53] | TGI [54] | TGI [55]

Nc1nc(-c2cccc3ccccc23)cc2ccccc12
4.08 µM: TGI [16]
3.91 µM: TGI [22]
9.68 µM: TGI [40]
33.9 µM: TGI [38]
24.1 µM: TGI [19]
17.6 µM: TGI [27]
> 44.2 µM: TGI [26]
13.9 µM: TGI [21]
9.7 µM: TGI [5]
12.4 µM: TGI [45]
13.1 µM: TGI [57]
14.9 µM: TGI [37]
13.2 µM: TGI [50]
0.573 µM: TGI [34]
3.17 µM: TGI [31]
5.44 µM: TGI [3]
14.6 µM: TGI [47]
20 µM: TGI [10]
13.8 µM: TGI [6]
22.1 µM: TGI [54]
> 100 µM: TGI [12] | TGI [14]
22.3 µM: TGI [4]
11.9 µM: TGI [33]
19.7 µM: TGI [43]
inactive: GI50 [1] 1.1 µM | GI50 [2] 0.638 µM | GI50 [3] 0.444 µM | GI50 [4] 0.647 µM | GI50 [9] 6.3 µM | GI50 [11] 0.53 µM | GI50 [12] 4.81 µM | GI50 [15] 0.46 µM | GI50 [17] 13.2 µM | GI50 [18] 0.577 µM | GI50 [19] 0.732 µM | GI50 [56] 0.789 µM | GI50 [20] 0.777 µM | GI50 [21] 0.466 µM | GI50 [27] 1 µM | GI50 [28] 0.712 µM | GI50 [29] 1.12 µM | GI50 [33] 1.63 µM | GI50 [37] 0.476 µM | GI50 [40] 1.17 µM | GI50 [41] 0.514 µM | GI50 [43] 1.25 µM | GI50 [45] 0.549 µM | GI50 [46] 0.563 µM | GI50 [47] 0.521 µM | GI50 [48] 0.503 µM | GI50 [49] 1.29 µM | GI50 [50] 0.494 µM | GI50 [52] 1.6 µM | GI50 [54] 0.463 µM
10.6 µM: TGI [7]
3.8 µM: TGI [24]
19.6 µM: TGI [15]
2.98 µM: TGI [32]
16 µM: TGI [56] | TGI [53]
12.9 µM: TGI [42]
active: GI50 [5] 0.386 µM | GI50 [6] 0.278 µM | GI50 [7] 0.332 µM | GI50 [10] 0.314 µM | GI50 [13] 0.324 µM | GI50 [14] 0.232 µM | GI50 [16] 0.257 µM | GI50 [22] 0.245 µM | GI50 [23] 0.287 µM | GI50 [24] 0.206 µM | GI50 [25] 0.231 µM | GI50 [57] 0.108 µM | GI50 [31] 0.234 µM | GI50 [32] 0.377 µM | GI50 [34] 0.214 µM | GI50 [35] 0.409 µM | GI50 [36] 0.332 µM | GI50 [38] 0.359 µM | GI50 [39] 0.351 µM | GI50 [42] 0.358 µM | GI50 [44] 0.342 µM | GI50 [51] 0.343 µM | GI50 [53] 0.196 µM | GI50 [58] 0.291 µM
> 54.2 µM: TGI [2]
1.9 µM: TGI [36]
24 µM: TGI [46]
24.4 µM: TGI [52]
1.12 µM: TGI [25]
13.4 µM: TGI [28] | TGI [41] | TGI [44] | TGI [48]
12.6 µM: TGI [35]
10.4 µM: TGI [51]
18.3 µM: TGI [1]
14.2 µM: TGI [20]
10.8 µM: TGI [11]
17.8 µM: TGI [18]
27.9 µM: TGI [17]
1.69 µM: TGI [58]
29.4 µM: TGI [9]
10.3 µM: TGI [23]
2.85 µM: TGI [13]
> 40.4 µM: TGI [49]
3.96 µM: TGI [39]
15.9 µM: TGI [29]

O=C1CNc2cc(N3CCN(c4ccccc4)CC3)ccc2N1
> 100 µM: TGI [1] | TGI [2] | TGI [3] | TGI [4] | TGI [5] | TGI [6] | TGI [7] | TGI [8] | TGI [9] | TGI [10] | TGI [11] | TGI [12] | TGI [13] | TGI [14] | TGI [15] | TGI [16] | TGI [17] | TGI [18] | TGI [19] | TGI [20] | TGI [21] | TGI [22] | TGI [23] | TGI [24] | TGI [25] | TGI [26] | TGI [27] | TGI [28] | TGI [29] | TGI [30] | TGI [31] | TGI [32] | TGI [33] | TGI [34] | TGI [35] | TGI [36] | TGI [37] | TGI [38] | TGI [39] | TGI [40] | TGI [41] | TGI [42] | TGI [43] | TGI [44] | TGI [45] | TGI [46] | TGI [47] | TGI [48] | TGI [49] | TGI [50] | TGI [51] | TGI [52] | TGI [53] | TGI [54] | TGI [55]

From PubChem BioAssay (NCI)
